Assay results as given in patent US4415546A, “Biologically active analogs of ACTH and radioimmuno assay therefor” (priority 1981, dated 1983).
Where two headings read alike, the source gives them in different places. Blank lines part the entries; values can stand above or below the substance they belong to. No end group written: not given here.

Legend:
[1] = target: ACTH antiserum 46-1; assay: saturation curves of ACTH antiserum with labeled ACTH; format: binding, rabbit
Experimental: Varying amounts of labeled ACTH were incubated with the antiserum at a final dilution of 1:58,000 in a total volume of 200 μl for 2 hr. at room temperature. Blanks containing no antiserum were included for each point.
25 μl of this washed protein A immunoprecipitant was added and the incubation was continued at 4° for 18 hr. One ml of assay buffer at 4° was added to a series of tubes and the tubes were then centrifuged at 2500 rpm for 15 min in a Beckman model TJ-6 refrigerated centrifuge.
The tubes containing [^3 H]-ACTH were processed similarly, drained, wiped and then 0.5 ml 0.1 N NaOH was added. The tubes were stirred on a Vortex mixer for 20 sec. and incubated at 37° for 30 min. An aliquot (0.4 ml) of the NaOH extract was mixed with phase combininhg scintillant (PCS, Amersham) and counted in a Packard PRIAS scintillation counter.

[2] = system: isolated rat adrenocortical cells; assay: isolated rat adrenocortical cell assay (corticosterone production); format: cell-based
[3] = system: steroidogenesis; settings: literature values; cited from earlier work
[4] = target: ACTH antiserum; assay: standard radioimmunoassay, displacement of [125I]-Tyr23,Phe2,Nle4-ACTH (1-38) from ACTH antiserum; format: binding, rabbit
Experimental: Standard radioimmunoassays were performed as follows: Unlabeled ACTH or other peptides in a volume of 50 μl were mixed with 50 μl antiserum and 50 μl Protein A immunoprecipitant washed as described above. All components were prepared in assay buffer and incubated at 4° for 24 hr. […] One ml of assay buffer was added and the tubes were processed as described above for counting in the Beckman 4000 counter.

[5] = isolated rat adrenocortical cells, result in words

Substance: [^125 I]-Tyr^23,Phe^2,Nle^4 -ACTH (1-38)
Kd ([1]; saturation binding, no preincubation, read-out: concentration needed for half-maximal binding of the radioligand): 96 ± 16 pM
EC50 ([2]; corticosterone production, 37° for 1 hr, non-linear least squares analysis, read-out: concentration required for half maximal stimulation of steroidogenesis): 40.7 ± 6.9 pM
steroidogenic potency compared with ACTH [2, 5]: indistinguishable from that of ACTH

Substance: Phe^2, Nle^4 -ACTH-(1-38)
maximal stimulation of corticosterone production compared with human ACTH [2, 5]: same maximal degree as human ACTH
steroidogenic potency compared with ACTH [2, 5]: as potent as ACTH

Substance: [^125 I]ACTH: 125I labelled natural ACTH prepared by a lactoperoxidase process (McIlhinney and Schulster) (SYSMEHFRWGKPVGKKRRPVKVYPNGAEDESAEAFPLEF; also: 125I label (lactoperoxidase); UniProt P01189 138-176, looked up)
steroidogenic activity / potency relative to natural ACTH [3]: 50%

Kd ([1]; from saturation curves, antiserum dilution 1:58,000, read-out: apparent dissociation constant for the interaction with antiserum 46-1): 96 ± 16 pM
IC50 ([4]; preincubation of the antiserum with the competing peptide, read-out: value for 50% displacement of radioligand): 20.3 ± 3.3 pM
equivalents of unlabeled hormone for 50% displacement of the radioligand ([4]; under the preincubation conditions): less than one equivalent
equivalents of unlabeled hormone for 50% displacement of the radioligand ([4]; without preincubation): one equivalent
Substance: H-Ser^1 -Tyr-Ser-Met-Glu^5 -His-Phe-Arg-Trp-Gly^10 -Lys-Pro-Val-Gly-Lys^15 -Lys-Arg-Arg-Pro-Val^20 -Lys-Val-Tyr-Pro-Asn^25 -Gly-Ala-Glu-Asp-Glu^30 -Ser-Ala-Glu-Ala-Phe^35 -Pro-Leu-Glu-Phe^39 -Oh [ACTH]

Substance: monoiodo Tyr^23,Phe^2,Nle^4 -ACTH (1-38)
displacement curve compared with ACTH ([4]; result in words): identical
steroidogenic potency compared with ACTH [2, 5]: equipotent with ACTH
